Test results taken from article PMC6013247, “Preclinical characterization of INCB053914, a novel pan-PIM kinase inhibitor, alone and in combination with anticancer agents, in models of hematologic malignancies” (PLoS ONE, 2018).

How the values were obtained:
Kasumi-1 = test: Cell proliferation assay ([3H]-thymidine); assay type: cell-based; details: Kasumi-1 (AML)
Description: (§1) The antiproliferative effects of INCB053914 on hematologic tumor cells were investigated using assays described in the Supporting Information (S2 File).
(§2) Cell proliferation assays. […] After 3 to 4 days, [^3H]-thymidine (1 μCi/well) (PerkinElmer) in PBS (10 μl) was added to the cell culture for an additional 12 hours. The incorporated radioactivity was separated by filtration with water through GF/B filters (Packard Bioscience, Meriden, Connecticut) and measured by liquid scintillation counting with a TopCount (Packard Bioscience).

MOLP-2 = test: Cell proliferation assay ([3H]-thymidine); assay type: cell-based; details: MOLP-2 (MM)
Description: as §1, §2

CCRF-CEM = test: Cell proliferation assay ([3H]-thymidine); assay type: cell-based; details: Homo sapiens; CCRF-CEM (T-ALL); read-out: Mean (± SD) GI50
Description: as §1, §2

MOLM-13 = test: Cell proliferation assay ([3H]-thymidine); assay type: cell-based; details: Homo sapiens; MOLM-13 (AML); read-out: Mean (± SD) GI50
Description: as §1, §2

Kasumi-3 = test: Cell proliferation assay ([3H]-thymidine); assay type: cell-based; details: Kasumi-3 (AML)
Description: as §1, §2

MV-411 = test: Cell proliferation assay ([3H]-thymidine); assay type: cell-based; details: MV-411 (AML)
Description: as §1, §2

JM-1 = test: Cell proliferation assay ([3H]-thymidine); assay type: cell-based; details: JM-1 (T-ALL)
Description: as §1, §2

RPMI8226 = test: Cell proliferation assay ([3H]-thymidine); assay type: cell-based; details: RPMI8226 (MM)
Description: as §1, §2

KMS-11 = test: Cell proliferation assay ([3H]-thymidine); assay type: cell-based; details: KMS-11 (MM)
Description: as §1, §2

SUDHL-1 = test: Cell proliferation assay ([3H]-thymidine); assay type: cell-based; details: Homo sapiens, SU-DHL-1; SUDHL-1 (DLBCL); read-out: Mean (± SD) GI50
Description: as §1, §2

OCI-LY-19 = test: Cell proliferation assay ([3H]-thymidine); assay type: cell-based; details: OCI-LY-19 (DLBCL)
Description: as §1, §2

Mino = test: Cell proliferation assay ([3H]-thymidine); assay type: cell-based; details: Homo sapiens; Mino (MCL); read-out: Mean (± SD) GI50
Description: as §1, §2

Jurkat = test: Cell proliferation assay ([3H]-thymidine); assay type: cell-based; details: Jurkat (T-ALL)
Description: as §1, §2

F36P = test: Cell proliferation assay ([3H]-thymidine); assay type: cell-based; details: F36P (AML)
Description: as §1, §2

MOLP-8 = test: Cell proliferation assay ([3H]-thymidine); assay type: cell-based; details: MOLP-8 (MM)
Description: as §1, §2

OCI-LY-3 = test: Cell proliferation assay ([3H]-thymidine); assay type: cell-based; details: Homo sapiens, OCI-Ly3; OCI-LY-3 (DLBCL); read-out: Mean (± SD) GI50
Description: as §1, §2

THP-1 = test: Cell proliferation assay ([3H]-thymidine); assay type: cell-based; details: THP-1 (AML)
Description: as §1, §2

SKM-1 = test: Cell proliferation assay ([3H]-thymidine); assay type: cell-based; details: Homo sapiens; SKM-1 (AML); read-out: Mean (± SD) GI50
Description: as §1, §2

U2932 = test: Cell proliferation assay ([3H]-thymidine); assay type: cell-based; details: U2932 (DLBCL)
Description: as §1, §2

INA-6 = test: Cell proliferation assay ([3H]-thymidine); assay type: cell-based; details: INA-6 (MM)
Description: as §1, §2

KG-1a = test: Cell proliferation assay ([3H]-thymidine); assay type: cell-based; details: KG-1a (AML)
Description: as §1, §2

NOMO1 = test: Cell proliferation assay ([3H]-thymidine); assay type: cell-based; details: NOMO1 (AML)
Description: as §1, §2

GDM-1 = test: Cell proliferation assay ([3H]-thymidine); assay type: cell-based; details: Homo sapiens; GDM-1 (AML); read-out: Mean (± SD) GI50
Description: as §1, §2

HL-60 = test: Cell proliferation assay ([3H]-thymidine); assay type: cell-based; details: Homo sapiens; HL-60 (AML); read-out: Mean (± SD) GI50
Description: as §1, §2

[1] = system: BAD phosphorylation in whole blood spiked with KMS-12-BM cells; test: BAD phosphorylation in whole blood samples spiked with tumor cells, treated ex vivo; assay type: cell-based; details: Homo sapiens
CHEK2 = CHEK2 (Homo sapiens, UniProt O96017); test: Kinase selectivity panel; assay type: biochemical; details: [ATP] = 1 mM
[2] = Homo sapiens, read-out: Mean (± SD) GI50

Sequence of CHEK2 (O96017 whole entry): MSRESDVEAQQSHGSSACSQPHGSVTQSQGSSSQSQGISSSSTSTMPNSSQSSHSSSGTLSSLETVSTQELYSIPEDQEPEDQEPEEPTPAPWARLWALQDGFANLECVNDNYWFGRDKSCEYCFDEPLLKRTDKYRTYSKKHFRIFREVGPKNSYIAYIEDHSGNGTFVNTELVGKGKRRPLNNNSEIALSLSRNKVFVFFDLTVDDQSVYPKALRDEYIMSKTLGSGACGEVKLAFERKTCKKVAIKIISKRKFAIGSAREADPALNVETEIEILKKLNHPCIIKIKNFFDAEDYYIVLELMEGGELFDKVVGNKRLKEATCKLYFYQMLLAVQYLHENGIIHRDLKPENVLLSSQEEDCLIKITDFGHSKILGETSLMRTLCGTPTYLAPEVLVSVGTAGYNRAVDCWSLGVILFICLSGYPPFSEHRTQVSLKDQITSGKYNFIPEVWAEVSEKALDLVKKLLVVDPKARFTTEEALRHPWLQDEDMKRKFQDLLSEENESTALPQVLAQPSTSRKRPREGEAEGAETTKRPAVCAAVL

For C[C@H]1CN(c2c(NC(=O)c3ccc(F)c(-c4c(F)cccc4F)n3)cnc3c2CC[C@H]3O)C[C@@H](N)[C@@H]1O.O=P(O)(O)O [INCB053914, N-((R)-4-((3R,4R,5S)-3-amino-4-hydroxy-5-methylpiperidin-1-yl)-7-hydroxy-6,7-dihydro-5H-cyclopenta[b]pyridin-3-yl)-6-(2,6-difluorophenyl)-5-fluoropicolinamide phosphate], the GI50 (Kasumi-1; [2]) was 206 ± 76.3 nM, the “Mean (SD) maximum inhibition” value (Kasumi-1) was 76.7 ± 4.6% and the “Mean (SD) maximum inhibition” value (MOLP-2) was 95.4 ± 3.2%. It also gave a GI50 (MOLP-2; read-out: Mean (± SD) GI50) of 23.8 ± 10.1 nM, a GI50 (CCRF-CEM) greater than 3000 nM and a GI50 (MOLM-13) greater than 3000 nM. For the same compound, the “Mean (SD) maximum inhibition” value (Kasumi-3) was 84.3 ± 7.2%, the GI50 (Kasumi-3; read-out: Mean (± SD) GI50) was 4.9 nM and the GI50 (MV-411; Homo sapiens, MV4-11, read-out: Mean (± SD) GI50) was 35.2 ± 41.7 nM. For the same compound, the “Mean (SD) maximum inhibition” value (MV-411) was 94.3 ± 3.9%, the GI50 (JM-1; Homo sapiens, JM1, read-out: Mean (± SD) GI50) was 19.5 ± 15.1 nM and the “Mean (SD) maximum inhibition” value (JM-1) was 94.3 ± 4.9%. For the same compound, the GI50 (RPMI8226; Homo sapiens, RPMI-8226, read-out: Mean (± SD) GI50) was 230 ± 132 nM, the “Mean (SD) maximum inhibition” value (RPMI8226) was 96.8 ± 2.2% and the GI50 (KMS-11; [2]) was 81.8 ± 8.1 nM. The “Mean (SD) maximum inhibition” value (KMS-11) was 93.0 ± 2.5%, the GI50 (SUDHL-1) was greater than 3000 nM and the GI50 (OCI-LY-19; Homo sapiens, OCI-LY19, read-out: Mean (± SD) GI50) was 110 ± 53.6 nM. The “Mean (SD) maximum inhibition” value (OCI-LY-19) was 69.7 ± 5.1%, the GI50 (Mino) was greater than 3000 nM and the GI50 (Jurkat; [2]) was 931 ± 800 nM. The “Mean (SD) maximum inhibition” value (Jurkat) was 66.0 ± 7.0%, the “Mean (SD) maximum inhibition” value (F36P) was 94.7 ± 2.5% and the GI50 (F36P; read-out: Mean (± SD) GI50) was 76.1 ± 36.7 nM. The GI50 (MOLP-8; [2]) was 13.2 ± 7.7 nM, the “Mean (SD) maximum inhibition” value (MOLP-8) was 93.3 ± 1.7% and the GI50 (OCI-LY-3) was greater than 3000 nM. For the same compound, the GI50 (THP-1; [2]) was 2050 nM, the “Mean (SD) maximum inhibition” value (THP-1) was 76.3 ± 22.3% and the GI50 (SKM-1) was greater than 3000 nM. For the same compound, the GI50 (U2932; [2]) was 34.5 ± 10.1 nM, the “Mean (SD) maximum inhibition” value (U2932) was 83.6 ± 8.0% and the “Mean (SD) maximum inhibition” value (INA-6) was 99.0 ± 0.2%. The GI50 (INA-6; read-out: Mean (± SD) GI50) was 24.8 ± 4.6 nM, the GI50 (KG-1a; [2]) was 14.3 ± 4.9 nM and the “Mean (SD) maximum inhibition” value (KG-1a) was 94.5 ± 1.5%. The GI50 (NOMO1; Homo sapiens, NOMO-1, read-out: Mean (± SD) GI50) was 35.9 ± 9.3 nM, the “Mean (SD) maximum inhibition” value (NOMO1) was 84.6 ± 4.0% and the GI50 (GDM-1) was greater than 3000 nM. It also gave a GI50 (HL-60) greater than 3000 nM, an IC50 [1] of 134 nM and an IC50 (CHEK2) greater than 20000 nM.
